According to patent US9930893B2, “Inhibitors of DXP synthase and methods of use thereof” (The Johns Hopkins University, priority 2014, dated 2018):
In brackets after ≈: the same amount, converted by molar mass. Several values for one entry are separate records, joined by “and”; a condition that tells them apart may be missing. Equal entries are not always repeated. Where two headings read alike, the source gives them in different places.

Key:
[1] = target: T1, E. coli DXP synthase (DXPS) (Escherichia coli, UniProt P77488); assay type: biochemical; conditions: for kcat: acceptor substrate turnover
T1 construct: made in house
T1 sequence (P77488 1-620): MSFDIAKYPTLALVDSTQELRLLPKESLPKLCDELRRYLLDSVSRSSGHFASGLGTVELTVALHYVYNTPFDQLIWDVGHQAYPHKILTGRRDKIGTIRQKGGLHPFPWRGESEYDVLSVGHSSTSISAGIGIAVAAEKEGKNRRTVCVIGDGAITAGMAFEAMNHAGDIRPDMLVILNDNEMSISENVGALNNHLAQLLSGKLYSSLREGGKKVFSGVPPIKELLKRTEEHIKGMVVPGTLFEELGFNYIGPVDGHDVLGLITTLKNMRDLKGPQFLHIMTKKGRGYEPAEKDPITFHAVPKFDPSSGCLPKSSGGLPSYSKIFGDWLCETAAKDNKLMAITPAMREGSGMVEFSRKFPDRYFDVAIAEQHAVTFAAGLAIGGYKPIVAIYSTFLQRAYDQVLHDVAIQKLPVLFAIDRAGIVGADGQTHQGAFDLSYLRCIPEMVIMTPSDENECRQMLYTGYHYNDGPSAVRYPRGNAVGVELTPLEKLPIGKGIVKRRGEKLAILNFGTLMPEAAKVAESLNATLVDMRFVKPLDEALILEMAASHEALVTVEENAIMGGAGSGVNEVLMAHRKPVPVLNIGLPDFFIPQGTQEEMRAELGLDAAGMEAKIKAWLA
Procedure: Reaction mixtures containing 100 mM HEPES, pH 8.0, 2 mM MgCl2, 5 mM NaCl, 1 mM ThDP, 1 mg/mL BSA, 10-20 mM pyruvate, 10% DMSO, 0.5 mM 5 mM nitroso substrate were pre-incubated at 37° C. for 5 min. […] Aliquots of enzymatic mixture were removed at various time intervals and quenched into an equal volume of cold methanol. Quenched mixtures were incubated on ice for 20 minutes. Precipitated proteins were removed by centrifugation, and the supernatant was analyzed by HPLC with UV detection using the following conditions: Flow rate=3 mL/min; Solvent A: 100 mM NH4OAc, pH 4.6; Solvent B: acetonitrile; Method: 0-100% B over 10 min. New products formed were extracted from the supernatant using ethyl acetate (3×). […] Products were subsequently characterized by mass spectrometry.
Reaction mixtures containing 100 mM HEPES, pH 8.0, 2 mM MgCl2, 5 mM NaCl, 1 mM ThDP, 1 mg/mL BSA, 10-20 mM pyruvate, 10% DMSO v/v, and 10-300 μM nitroso substrate were pre-incubated at 37° C. for 5 min. […] Substrate concentration as a function of time was determined from absorbance values using Beer's Law. Initial reaction rates were determined from the linear range of the reaction progress curve, usually within 1-3 min. Data analysis to determine kcat and Km for each alternative substrate was carried out using GraFit version 7 from Erithacus Software.

porcine PDH E1 subunit = assay type: biochemical
Procedure: Reaction mixtures containing 100 mM HEPES, pH 8.0, 2 mM MgCl2, 5 mM NaCl, 1 mM ThDP, 1 mg/mL BSA, 10-20 mM pyruvate, 10% DMSO v/v, and 10-300 μM nitroso substrate were pre-incubated at 37° C. for 5 min. Enzymatic reactions were initiated by addition of 0.5-2 μM DXP synthase (or 0.1 units/ml PDH) and monitored spectrophotometrically by measuring the rate of disappearance of the nitroso substrate at its corresponding λmax. Substrate concentration as a function of time was determined from absorbance values using Beer's Law. Initial reaction rates were determined from the linear range of the reaction progress curve, usually within 1-3 min. Data analysis to determine kcat and Km for each alternative substrate was carried out using GraFit version 7 from Erithacus Software.

DXP synthase = target: T2, DXP synthase (Escherichia coli, UniProt P77488); experiment: Inhibition of DXP formation by nitroso substrates (HPLC-based assay); assay type: biochemical, E. coli; conditions: 30 μM D-GAP, 80 μM pyruvate, 37° C.; average ± SEM
T2 construct: made in house
T2 sequence (P77488 1-620): T1 sequence (P77488 1-620)
Procedure: Enzyme reactions were initiated by addition of 0.1 μM DXP synthase. Aliquots (150 μL) of the enzymatic mixture were removed between 0.5 and 3 minutes and quenched into ice-cold methanol (150 μL). Precipitated protein was removed by centrifugation, and the supernatant was diluted in an equal volume of water. The nitroso substrate was removed by extraction into acetonitrile (3×), using a previously described freeze-extraction technique. ^[32] […] The derivatization mixtures were analyzed by HPLC as previously described. ^[19] To determine initial reaction rates in the presence of varying inhibitor concentration, the D,L-GAP and DXP hydrazone HPLC peak areas were measured, and the product concentration was determined as a percent of total peak area and plotted against reaction time. Initial rates GraFit version 7 from Erithacus Software was utilized to generate IC50 curves.

E. coli DXP synthase = target: T3, E. coli DXP synthase (Escherichia coli, UniProt P77488); experiment: biochemical
T3 construct: made in house
Procedure: FIG. 4A, FIG. 4B, and FIG. 4C are charts showing competitive inhibition of DXP synthase by pentylacetylphosphonate (PentAP; FIG. 4A), hexylacetylphosphonate (HexAP; FIG. 4B), and octylacetyl phosphonate (OctAP; FIG. 4C). Inhibition assays were performed as previously described^[18], [40]). […] Pyruvate concentration was varied from 12-240 μM and acetylphosphonate concentration was varied: 0 μM (∘), 10 μM (●), 25 μM (□) and 50 μM (▪). Experiments were performed in triplicate, and data were subjected to non-linear regression analysis for Ki determinations (GraphPad Prism). Representative Lineweaver-Burk plots (GraFit from Erithacus Software) are shown for PentAP (FIG. 4A), HexAP (FIG. 4B) and OctAP (FIG. 4C) to illustrate the competitive inhibition mode with respect to pyruvate.
Inhibition of DXP synthase was measured as previously described^[13], [18]. […] Acetylphosphonate concentration was varied from 0 to 250 μM. […] Experiments were performed in triplicate for BAP and in duplicate for iPrAP
In order to evaluate the inhibitory activity of BnAP against DXP synthase, a continuous spectrophotometric coupled assay was used to measure formation of DXP by monitoring IspC consumption of NADPH (340 nm). ^[2] DXP synthase reaction mixtures (previously described) including BnAP (15, 30, and 60 μM), IspC (1 μM) and NADPH (100 μM) were pre-incubated at 37° C. for 5 minutes. Initial rates were measured after the reaction was initiated by the addition of DXP synthase. Inhibition of the coupling enzyme (IspC) by BnAP was not observed up to 1.5 mM. Experiments were performed in triplicate. Double reciprocal analysis of data was carried out using GraFit version 7 from Erithacus Software.

[2] = test system: wild-type K-12 E. coli (ATCC: MG1655); experiment: Antimicrobial activity against E. coli K-12 grown in CAMHB; assay type: cell-based; conditions: Escherichia coli, MG1655, 16 h, read-out: minimum inhibitory concentration (MIC90)
Procedure: FIG. 7A and FIG. 7B are charts showing representative growth curves are shown for BAP (FIG. 7A) and BnAP (FIG. 7B). Alkylacetylphosphonates exert dose-dependent delay in E. coli K-12 (MG 1655) growth in CAMHB. Fractional growth (measured at 16 h, blue arrow) was determined relative to the no drug control. Standardized cell cultures were exposed to increasing concentrations of acetylphosphonate, and growth was determined by measuring the OD600 for a period of 16 hours. Acetylphosphonate concentration was varied from 0-5 mM: No drug (light blue), 0.08 mM (orange), 0.16 mM (gray), 0.31 mM (yellow), 0.63 mM (blue), 1.25 mM (green), 2.5 mM (dark blue) and 5.0 mM (brown).
Thus, BnAP, PentAP, HexAP and OctAP, also shown to inhibit DXP synthase, were evaluated for antimicrobial activity against wild-type K-12 E. coli (ATCC: MG1655) grown in rich medium (CAMHB).

[3] = target: T4, Porcine pyruvate dehydrogenase (PDH E1 subunit) (Sus scrofa, UniProt P29804); experiment: Inhibition of PDH by acetylphosphonates; assay type: biochemical; conditions: Ki^PDH
T4 construct: Ki^PDH; μM); Ki^PDH
T4 sequence (P29804 1-390): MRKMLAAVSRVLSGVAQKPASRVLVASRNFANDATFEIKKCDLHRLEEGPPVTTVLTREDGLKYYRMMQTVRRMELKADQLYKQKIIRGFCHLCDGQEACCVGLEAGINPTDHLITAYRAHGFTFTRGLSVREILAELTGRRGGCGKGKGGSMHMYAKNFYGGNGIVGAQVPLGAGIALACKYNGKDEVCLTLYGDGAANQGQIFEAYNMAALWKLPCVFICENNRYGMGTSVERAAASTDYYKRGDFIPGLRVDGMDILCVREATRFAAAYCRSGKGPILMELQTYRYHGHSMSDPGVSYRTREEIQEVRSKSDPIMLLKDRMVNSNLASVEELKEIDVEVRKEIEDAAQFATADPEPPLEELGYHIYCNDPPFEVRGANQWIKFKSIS
Procedure: FIG. 6A, FIG. 6B, and FIG. 6C are charts showing Competitive inhibition of procine PDH E1 subunit by PentAP (FIG. 6A), HexAP (FIG. 6B) and OctAP (FIG. 6C). Inhibition assays were performed as previously described^[18]. Pyruvate concentration was varied from 12.5-250 μM and acetylphosphonate concentration was varied: 0 μM (∘), 250 μM (PentAP) or 200 μM (HexAP and OctAP) (●), 500 μM (□) and 1000 μM (▪). Experiments were performed in triplicate, and data were subjected to non-linear regression analysis for Ki determinations (GraphPad Prism). Representative Lineweaver-Burk plots (GraFit from Erithacus Software) are shown for PentAP (FIG. 6A), HexAP (FIG. 6B) and OctAP (FIG. […]) to illustrate the competitive inhibition mode with respect to pyruvate.
Pyruvate dehydrogenase activity was measured spectrophotometrically as previously reported ^[38] by monitoring absorbance changes at 340 nm due to reduction of NAD^+ by PDH. Reaction mixtures contained 100 mM HEPES (pH 8.0), 1 mg/mL BSA, 0.2 mM ThDP, 0.1 mM coenzyme A, 1 mM MgCl2, 2 mM cysteine, 0.3 mM tris(2-carboxyethyl)phosphine (TCEP). The reaction was initiated with enzyme (0.01 units/ml) and activity was monitored at 30° C. For inhibition studies, reaction mixtures (described above) including BnAP (0.5, 1, 2.25 mM) were pre-incubated at 30° C. for 5 minutes. Initial rates were measured immediately after reactions were initiated by addition of PDH (0.01 units/ml). Double reciprocal analysis of data was carried out using GraFit version 7 from Erithacus Software.

[4] = 10-20 mM pyruvate, pH 8.0, 10% DMSO, 37° C., average ± SEM
[5] = acceptor substrate, 10-20 mM pyruvate, pH 8.0, 10% DMSO, 37° C., average ± SEM
[6] = Table 4, read-out: In vitro DXP syn IC50
[7] = Ki (DXP synthase), competitive with respect to pyruvate

benzyl acetylphosphonate [Compound 1]
kcat [1, 4]: 2.92 ± 0.317 s⁻¹
Km [1, 5]: 133 ± 18 µM
Km (porcine PDH E1 subunit; 10-20 mM pyruvate, pH 8.0, 37° C., average ± SEM): 350 ± 30 µM
Km^PDH/Km^DXPS (porcine PDH E1 subunit; ratio porcine PDH E1 vs E. coli DXPS): 2.7
IC50 (DXP synthase): 208 ± 20 µM

COc1ccc2ccc(O)c(N=O)c2c1 [Compound 8]
kcat [1, 4]: 0.0217 ± 0.0033 s⁻¹
Km [1, 5]: 63 ± 7 µM
IC50 (DXP synthase): > 2000 µM

O=Nc1ccc(O)c2ncccc12 [Compound 10]
substrate usage by DXP synthase ([1]; in words): did not act as substrate

COc1cccc(COP(=O)([O-])C(C)=O)c1.[Li+] [Compound 3]
kcat [1, 4]: 0.6 ± 0.12 s⁻¹
Km [1, 5]: 99 ± 16 µM
IC50 (E. coli DXP synthase; [6]): 37.4 µM

CC(=O)P(=O)(O)OCc1ccccc1 [Compound 1, benzyl acetylphosphonate]
MIC90 [2]: 630 µM (≈ 135 µg/mL)
Ki (E. coli DXP synthase; [7]): 10.4 ± 1.3 µM
Ki (E. coli DXP synthase; Ki (DXP synthase, with respect to D-GAP), uncompetitive with respect to D-GAP, 200 μM pyruvate): 70 ± 8 µM
Ki (E. coli DXP synthase; Ki^DXPS, Table 5 (no unit in table; μM), vs pyruvate): 10 ± 1 µM
Ki ([3]; Table 5 (no unit in table; μM)): 880 ± 78 µM
Ki ([3]; competitive with respect to pyruvate): 882 ± 78 µM

CC(=O)P(=O)(O)OC1Cc2ccccc2C1 [Compound 2]
IC50 (E. coli DXP synthase; [6]): 64.5 µM

O=Nc1ccccc1 [Substrate 1, nitrosobenzene, reference compound]
increase in Km for PDH compared to DXP synthase (porcine PDH E1 subunit): 2.7 fold

Cc1nn(C(C)C)c(C)c1N=O [Compound 9]
kcat [1, 4]: 0.0233 ± 0.0033 s⁻¹
Km [1, 5]: 387 ± 18 µM
IC50 (DXP synthase): > 2000 µM

NS(=O)(=O)c1ccc2c(N=O)c(O)ccc2c1 [Compound 7]
kcat [1, 4]: 0.0197 ± 0.00067 s⁻¹
Km [1, 5]: 18 ± 4 µM

CC(=O)P(=O)(O)OC(C)C [iPrAP, Isopropylacetylphosphonate]
IC50 (E. coli DXP synthase; pyruvate 95 μM, D-GAP 56 μM, error 95% Confidence Interval, read-out: IC50 (DXP synthase)): 250 µM and 245 µM

CC(=O)P(=O)([O-])OCCc1cccc2ccccc12.[Li+] [Compound 5]
kcat [1, 4]: 0.0183 ± 0.0033 s⁻¹
Km [1, 5]: 41 ± 10 µM
IC50 (E. coli DXP synthase; [6]): 77 µM
Ki (E. coli DXP synthase; Table 4, read-out: In vitro DXP syn Ki): 55 µM

CCCCCCOP(=O)(O)C(C)=O [HexAP, Hexylacetylphosphonate]
MIC90 [2]: 5000 µM (≈ 1040 µg/mL)
Ki (E. coli DXP synthase; [7]): 8.9 ± 0.5 µM
Ki ([3]; Table 5 (no unit in table; μM)): 117 ± 9 µM

O=Nc1c(O)ccc2cc(Br)ccc12 [Compound 6]
kcat [1, 4]: 0.0333 ± 0.0033 s⁻¹
Km [1, 5]: 24 ± 6 µM

C=CCOP(=O)(O)C(C)=O [Compound 12]
IC50 (E. coli DXP synthase): 20 µM

O=C[C@H](O)COP(=O)(O)O [D-GAP, D-glyceraldehyde 3-phosphate, reference compound]
kcat [1, 4]: 1.7 ± 0.12 s⁻¹
Km ([1]; pH 8): 28 ± 4 µM
